Reference: patent publication US11697650B2, “Compounds having tetrahydroindolizine-1-carboxamide as BCL-2 inhibitors” (Eil Therapeutics, Inc., priority 2021, dated 2023)

Assays:
[1] = Cell viability assay (CellTiter-Glo), HEK293; format: cell-based; conditions: human, HEK293 cells, read-out: HEK293 (CC50 code)
Procedure: (§1) Culture medium for HEK293—DMEM (PanEco, Cat #C420) was used. RPMI-1640 (PanEco, Cat #C363) was used for the rest of the cell lines.
(§2) Compounds were prepared as 200× stocks with serial dilution in 100% DMSO with a final concentration of 1×.
(§3) […] were dispersed in 40 μL aliquots in 384-well plates at a concentration of 2000 cells per well for HEK293 and at a concentration of 4000 cells per well for the rest of the cell lines using a robotic station Biomek (Beckman). Before adding compounds, the cells were incubated at 37° C. (HEK293 were incubated for a day before adding compounds).
(§4) A dilution plate was prepared by pouring 78 μL of the appropriate culture medium using a robotic station Biomek (Beckman). Sequentially, using a robotic station, 2 μL of substances were taken and added to 78 μL of culture medium (dilution of compounds 40×). 10 μL aliquots were taken and added to the plates of the cells (dilution of compounds 5×). The plates were incubated for 3 days at a temperature 37° C. After 3 days, 10 μL of CellTiter-Glo (Promega) was added to the cells and the luminescence was measured.

[2] = test system: caspase-3 and -7 activities in RS4-11 cells; assay: Caspase-3/7 activation (Caspase-Glo 3/7) in RS4-11 cells; format: cell-based; conditions: Homo sapiens, 3.5 h incubation, read-out: Cas-3/7 (EC50 code)
Procedure: The Caspase-Glo 3/7 Assay is homogeneous, luminescent assay that measures caspase-3 and -7 activities. The assay provides a luminogenic caspase-3/7 substrate, which contains the tetrapeptide sequence DEVD, in a reagent optimized for caspase activity.
Incubate RS4-11 cells with varying concentrations of test compounds for 3.5 h in a humidified incubator at 37° C. and 5% CO2 and 30 min at r.t. Add 15 μl Caspase-Glo reagent to each well and incubate the plate for 30 min at r.t. Read on ClarioStar Plus instrument.
Promega Caspase-Glo (Promega, #8212); Frozen RS4-11 cells; 384-well white plate (Corning, #3570).
ClarioStar Plus; Biomek FX for liquid handling (Beckman Coulter).

BCL-XL = BCL-XL (Homo sapiens (Human), UniProt Q07817); assay: BCL-XL TR-FRET Assay (primary PPI inhibition); format: binding; conditions: 60 min incubation; read-out: BCLxL (IC50 code, BCL-XL TR-FRET)
Procedure: BCL-XL TR-FRET Assay (BPS Bioscience, #50223)
(§5) The following assay concentrations and times were used: 10.5 ng BCL-XL, 5 μl of 1:100 anti-His Tb-labeled donor, 5 μl of 1:100 Dye-labeled acceptor, 5 μl of 1:80 BCL-XL Peptide Ligand, and 2 μl of test compound, with 60 min incubation time. The results of the assay were read using a Clariostar (BMG Labtech) plate reader with the following parameters: TR FRET, 340ex/620 and 665em; 60 μsec Delay; and 500 μsec integration.

RS4-11 cells = assay: Cell viability assay (CellTiter-Glo), RS4-11; format: cell-based; conditions: Homo sapiens, 72 h, 3 days, read-out: RS4-11 (CC50 code)
Procedure: as §1, §2, §3, §4

BCL-2 = BCL-2 (Homo sapiens (Human), UniProt P10415); assay: BCL-2 TR-FRET Assay (primary PPI inhibition); format: binding; conditions: 60 min incubation; read-out: BCL2 (IC50 code, BCL-2 TR-FRET)
Procedure: BCL-2 TR-FRET Assay (BPS Bioscience, #50222)
as §5, with “used: 3” for “used: 10.5”, “ng BCL-2,” for “ng BCL-XL,”, “of 1:40 BCL-2” for “of 1:80 BCL-XL”, “2 ul” for “2 μl”

MOLT-4 cells = assay: Cell viability assay (CellTiter-Glo), MOLT-4; format: cell-based; conditions: Homo sapiens, 72 h, 3 days, read-out: MOLT-4 (CC50 code)
Procedure: as §1, §2, §3, §4

Sequence of BCL-XL (Q07817 whole entry): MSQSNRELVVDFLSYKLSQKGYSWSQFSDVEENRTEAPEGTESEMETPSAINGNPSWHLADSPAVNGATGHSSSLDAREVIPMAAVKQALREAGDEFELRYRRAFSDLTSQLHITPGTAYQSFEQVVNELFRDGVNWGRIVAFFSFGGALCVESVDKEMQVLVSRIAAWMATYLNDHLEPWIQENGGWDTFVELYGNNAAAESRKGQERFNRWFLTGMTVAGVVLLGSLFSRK
Sequence of BCL-2 (P10415 whole entry): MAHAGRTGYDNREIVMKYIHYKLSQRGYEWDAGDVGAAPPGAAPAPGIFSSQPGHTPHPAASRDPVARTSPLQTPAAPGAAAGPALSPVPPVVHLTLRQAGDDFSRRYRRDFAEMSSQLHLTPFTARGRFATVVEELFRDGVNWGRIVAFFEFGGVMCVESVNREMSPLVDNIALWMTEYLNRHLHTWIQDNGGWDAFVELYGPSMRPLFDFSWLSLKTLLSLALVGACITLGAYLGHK

Compound	CC50 at 3 days [1]	EC50 [2]	IC50 (BCL-XL)	CC50 (RS4-11 cells)	IC50 (BCL-2)	CC50 (MOLT-4 cells)
COc1cccc(CN(C(=O)c2cc(-c3cc4c(cc3C(=O)N3Cc5ccccc5C[C@H]3CN3CCOCC3)OCO4)n3c2CCCC3)c2ccc(O)cc2)c1C [Compound 3, N-(4-hydroxyphenyl)-N-(3-methoxy-2-methylbenzyl)-3-(6-{[(3S)-3-(morpholin-4-ylmethyl)-3,4-dihydroisoquinolin-2(1H)-yl]carbonyl}-1,3-benzodioxol-5-yl)-5,6,7,8-tetrahydroindolizine-1-carboxamide]	> 25 µM	≤ 0.1 µM	≤ 2 µM	≤ 0.1 µM	≤ 0.005 µM	≤ 2 µM
Cc1ccccc1CN(C(=O)c1cc(-c2cc3c(cc2C(=O)N2Cc4ccccc4C[C@H]2CN2CCOCC2)OCO3)n2c1CCCC2)c1ccc(O)cc1 [Compound 4, N-(4-hydroxyphenyl)-N-(2-methylbenzyl)-3-(6-{[(3S)-3-(morpholin-4-ylmethyl)-3,4-dihydroisoquinolin-2(1H)-yl]carbonyl}-1,3-benzodioxol-5-yl)-5,6,7,8-tetrahydroindolizine-1-carboxamide]	> 25 µM	≤ 0.1 µM	≤ 2 µM	≤ 0.1 µM	≤ 0.005 µM	> 10 µM
O=C(c1cc(-c2cc3c(cc2C(=O)N2Cc4ccccc4C[C@H]2CN2CCOCC2)OCO3)n2c1CCCC2)N(Cc1ccccc1C(F)(F)F)c1ccc(O)cc1 [Compound 5, N-(4-hydroxyphenyl)-3-(6-{[(3S)-3-(morpholin-4-ylmethyl)-3,4-dihydroisoquinolin-2(1H)-yl]carbonyl}-1,3-benzodioxol-5-yl)-N-[2-(trifluoromethyl)benzyl]-5,6,7,8-tetrahydroindolizine-1-carboxamide]	> 25 µM	≤ 0.1 µM	≤ 2 µM	≤ 0.1 µM	≤ 0.005 µM	2 to 10 µM
O=C(c1cc(-c2cc3c(cc2C(=O)N2Cc4ccccc4C[C@H]2CN2CCOCC2)OCO3)n2c1CCCC2)N(Cc1ccncc1)c1ccc(O)cc1 [Compound 9, N-(4-hydroxyphenyl)-3-(6-{[(3S)-3-(morpholin-4-ylmethyl)-3,4-dihydroisoquinolin-2(1H)-yl]carbonyl}-1,3-benzodioxol-5-yl)-N-(pyridin-4-ylmethyl)-5,6,7,8-tetrahydroindolizine-1-carboxamide]	10 to 25 µM	0.1 to 0.25 µM	2 to 4 µM	0.1 to 0.2 µM	≤ 0.005 µM	2 to 10 µM
Cc1cccc(CN(C(=O)c2cc(-c3cc4c(cc3C(=O)N3Cc5ccccc5C[C@H]3CN3CCOCC3)OCO4)n3c2CCCC3)c2ccc(O)cc2)c1 [Compound 14, N-(4-hydroxyphenyl)-N-(3-methylbenzyl)-3-(6-{[(3S)-3-(morpholin-4-ylmethyl)-3,4-dihydroisoquinolin-2(1H)-yl]carbonyl}-1,3-benzodioxol-5-yl)-5,6,7,8-tetrahydroindolizine-1-carboxamide]	> 25 µM	> 0.25 µM	2 to 4 µM	≤ 0.1 µM	0.005 to 0.01 µM	2 to 10 µM
O=C(c1cc(-c2cc3c(cc2C(=O)N2Cc4ccccc4C[C@H]2CN2CCOCC2)OCO3)n2c1CCCC2)N(Cc1ccccc1)c1ccc(O)cc1 [Compound 15, N-benzyl-N-(4-hydroxyphenyl)-3-(6-{[(3S)-3-(morpholin-4-ylmethyl)-3,4-dihydroisoquinolin-2(1H)-yl]carbonyl}-1,3-benzodioxol-5-yl)-5,6,7,8-tetrahydroindolizine-1-carboxamide]	> 25 µM	0.1 to 0.25 µM	≤ 2 µM	0.1 to 0.2 µM	0.005 to 0.01 µM	≤ 2 µM
